The results in this text go back to patent US10883083B2, “Tissue-engineered three-dimensional model for tumor analysis” (The Trustees of Columbia University in the City of New York, priority 2013, dated 2021).

For the experiment, the system named is ES cells (SK-N-MC) in Col 1-HA scaffold. Briefly: Blebbistatin treatment of bioengineered tumor: cell morphology and exosome size (NTA). In kind it is cell-based, human. Conditions: blebbistatin-treated vs untreated controls, 3D setting. The protocol:
To seed 3D Collagen 1-HA scaffolds, single-cell suspension of SK-N-MC cells was adjusted to the cell concentration of 1×10^6 cells/mL in a 50 ml Falcon tube. A total of 15 scaffolds were added to 30 mL of cell suspension, and the Falcon was set onto a rotary platform for 3 hours at 37° C./5% CO2. Cell seeded scaffolds were then transferred to non-treated wells in 12-multiwell plates (Nunc) and cultured in 2 mL of medium at 37° C./5% CO2. Cell numbers and were determined by Quant-iT PicoGreen dsDNA Assay Kit (Life technologies) according to the manufacturer's instructions. Exosome isolation and size analysis: Cells cultured in monolayers, aggregates and 3D scaffolds were washed with PBS twice and cultured in EMEM supplemented with 10% (v/v) Exosome-depleted FBS (SBI) and 1% penicillin/streptomycin for 12 h. The supernatants were collected and exosomes were isolated from cell culture media using the total exosome isolation kit (Invitrogen), according to the manufacturer's protocol. Exosomes from plasma samples were also isolated using the total exosome isolation kit (Invitrogen). The size distributions of exosomes were determined by Nanoparticle Tracking Analysis (NTA) using the Nanosight machine. To probe a possible mechanism underlying the observed effects of the tumor environment on exosome size, we modified the tension forces within the cells.

With `Cc1ccc2c(c1)C(=O)C1(O)CCN(c3ccccc3)C1=N2` (centres unmarked) [Blebbistatin], the “Cell morphology / cell aggregates” value is “partial disassembly of cell aggregates” and the Exosome size distribution result is “shift of the exosome size distribution curve to higher values”.
